Results published in PMC3349777 (2012).

Experiments:
[1] = biological target: Trypanosoma cruzi squalene synthase (TcSQS) (Trypanosoma cruzi, UniProt Q4CWB4); assay: enzyme inhibition assay, recombinant SQS; type: biochemical
[2] = biological target: T1, human squalene synthase (HsSQS) (Homo sapiens, UniProt P37268); assay: enzyme inhibition assay, recombinant SQS; type: biochemical
T1 sequence (P37268 1-417): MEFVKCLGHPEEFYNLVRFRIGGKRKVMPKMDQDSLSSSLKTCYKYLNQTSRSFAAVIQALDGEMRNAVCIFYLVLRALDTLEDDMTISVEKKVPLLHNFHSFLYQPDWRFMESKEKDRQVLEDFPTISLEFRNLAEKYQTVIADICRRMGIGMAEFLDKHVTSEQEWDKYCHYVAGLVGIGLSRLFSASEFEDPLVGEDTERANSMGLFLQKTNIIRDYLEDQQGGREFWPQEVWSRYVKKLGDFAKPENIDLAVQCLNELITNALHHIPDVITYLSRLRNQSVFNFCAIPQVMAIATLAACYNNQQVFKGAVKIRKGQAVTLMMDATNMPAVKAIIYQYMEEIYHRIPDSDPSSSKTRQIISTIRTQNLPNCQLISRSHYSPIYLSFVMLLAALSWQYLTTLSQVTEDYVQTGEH

CC(C)=CCC/C(C)=C\CNCCNC1C2CC3CC(C2)CC1C3 (centres unmarked) [compound 3, SQ-109]
Ki [1]: 1200 nM | Ki [2]: 740 nM
